Key:
[1] = test system: T1, Gaa1 (E. gracilis D-galacturonate reductase); test: NAD(P)H oxidation, absorbance at […] nm; type: biochemical, Euglena gracilis; settings: 1 mM NADPH, 0.1 M Na-phosphate pH 7, 30°C
T1 construct: full-length 420 aa, C-terminal 6xHis tag kept, synthetic codon-optimized gene expressed in S. cerevisiae, IMAC purified, ~45 kDa; primer-encoded N-terminus MVDVLMVGT

[2] = test system: T1, Gaa1 (E. gracilis D-galacturonate reductase); test: reverse reaction with NADP; type: biochemical, Euglena gracilis; settings: 1 mM NADP, 0.1 M Na-phosphate pH 7, 30°C
Source text: reverse reaction with NADP on Gaa1 (E. gracilis D-galacturonate reductase)

SMILES | Km [1] [µM] | Km [2] [µM]
O=C(O)[C@H]1OC(O)[C@H](O)[C@@H](O)[C@H]1O (stereo partly drawn) [GalUA, D-galacturonate] | 300 | 
O=C(O)[C@@H](O)[C@H](O)[C@H](O)[C@@H](O)CO [L-galA, L-galactonate] |  | 700
